Reference: PubChem BioAssay (NCI)
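48-hour exposure; five concentrations; linearly interpolated endpoints. At the TGI there is no net growth.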

How the values were obtained:
Experiment in all cases: DTP human tumour cell line panel, 48 h
786-0 renal = test system: 786-0 renal
A549 NSCLC = test system: A549 NSCLC
ACHN renal = test system: ACHN renal
CAKI-1 renal = test system: CAKI-1 renal
CCRF-CEM leukemia = test system: CCRF-CEM leukemia
COLO 205 colon = test system: COLO 205 colon
DU-145 prostate = test system: DU-145 prostate
EKVX NSCLC = test system: EKVX NSCLC
HCC-2998 colon = test system: HCC-2998 colon
HCT-116 colon = test system: HCT-116 colon
HCT-15 colon = test system: HCT-15 colon
HOP-62 NSCLC = test system: HOP-62 NSCLC
HOP-92 NSCLC = test system: HOP-92 NSCLC
HT29 colon = test system: HT29 colon
IGROV1 ovarian = test system: IGROV1 ovarian
K-562 leukemia = test system: K-562 leukemia
KM12 colon = test system: KM12 colon
LOX IMVI melanoma = test system: LOX IMVI melanoma
M14 melanoma = test system: M14 melanoma
MALME-3M melanoma = test system: MALME-3M melanoma
MCF7 breast = test system: MCF7 breast
MDA-MB-231 breast = test system: MDA-MB-231 breast
MDA-MB-435 = test system: MDA-MB-435
MDA-N = test system: MDA-N
MOLT-4 leukemia = test system: MOLT-4 leukemia
NCI-H226 lung = test system: NCI-H226 lung
NCI-H23 lung = test system: NCI-H23 lung
NCI-H522 lung = test system: NCI-H522 lung
NCI/ADR-RES ovarian = test system: NCI/ADR-RES ovarian
OVCAR-4 ovarian = test system: OVCAR-4 ovarian
OVCAR-5 ovarian = test system: OVCAR-5 ovarian
OVCAR-8 ovarian = test system: OVCAR-8 ovarian
PC-3 prostate = test system: PC-3 prostate
RPMI-8226 leukemia = test system: RPMI-8226 leukemia
RXF 393 renal = test system: RXF 393 renal
SF-295 CNS = test system: SF-295 CNS
SF-539 CNS = test system: SF-539 CNS
SK-MEL-2 melanoma = test system: SK-MEL-2 melanoma
SK-MEL-28 melanoma = test system: SK-MEL-28 melanoma
SK-MEL-5 melanoma = test system: SK-MEL-5 melanoma
SK-OV-3 ovarian = test system: SK-OV-3 ovarian
SN12C renal = test system: SN12C renal
SNB-19 CNS = test system: SNB-19 CNS
SNB-75 CNS = test system: SNB-75 CNS
T-47D breast = test system: T-47D breast
TK-10 renal = test system: TK-10 renal
U251 CNS = test system: U251 CNS
UACC-257 melanoma = test system: UACC-257 melanoma
UACC-62 melanoma = test system: UACC-62 melanoma
UO-31 renal = test system: UO-31 renal
A498 renal = test system: A498 renal
BT-549 breast = test system: BT-549 breast
HL-60(TB) leukemia = test system: HL-60(TB) leukemia
SW-620 colon = test system: SW-620 colon
HS 578T breast = test system: HS 578T breast
NCI-H460 lung = test system: NCI-H460 lung
OVCAR-3 ovarian = test system: OVCAR-3 ovarian
SF-268 CNS = test system: SF-268 CNS
SR leukemia = test system: SR leukemia

## COc1nc2sc3c(c2c(=O)n1CCCSSCCCn1c(OC)nc2sc4c(c2c1=O)CCCC4)CCCC3
786-0 renal
  TGI: > 100 µM
A549 NSCLC
  TGI: > 100 µM
ACHN renal
  TGI: > 100 µM
CAKI-1 renal
  TGI: > 100 µM
CCRF-CEM leukemia
  TGI: > 100 µM
COLO 205 colon
  TGI: > 100 µM
DU-145 prostate
  TGI: > 100 µM
EKVX NSCLC
  TGI: > 100 µM
HCC-2998 colon
  TGI: > 100 µM
HCT-116 colon
  TGI: > 100 µM
HCT-15 colon
  TGI: > 100 µM
HOP-62 NSCLC
  TGI: > 100 µM
HOP-92 NSCLC
  TGI: > 100 µM
HT29 colon
  TGI: > 100 µM
IGROV1 ovarian
  TGI: > 100 µM
K-562 leukemia
  TGI: > 100 µM
KM12 colon
  TGI: > 100 µM
LOX IMVI melanoma
  TGI: > 100 µM
M14 melanoma
  TGI: > 100 µM
MALME-3M melanoma
  TGI: > 100 µM
MCF7 breast
  TGI: > 100 µM
MDA-MB-231 breast
  TGI: > 100 µM
MDA-MB-435
  TGI: > 100 µM
MDA-N
  TGI: > 100 µM
MOLT-4 leukemia
  TGI: > 100 µM
NCI-H226 lung
  TGI: > 100 µM
NCI-H23 lung
  TGI: > 100 µM
NCI-H522 lung
  TGI: > 100 µM
NCI/ADR-RES ovarian
  TGI: > 100 µM
OVCAR-4 ovarian
  TGI: > 100 µM
OVCAR-5 ovarian
  TGI: > 100 µM
OVCAR-8 ovarian
  TGI: > 100 µM
PC-3 prostate
  TGI: > 100 µM
RPMI-8226 leukemia
  TGI: > 100 µM
RXF 393 renal
  TGI: > 100 µM
SF-295 CNS
  TGI: > 100 µM
SF-539 CNS
  TGI: > 100 µM
SK-MEL-2 melanoma
  TGI: > 100 µM
SK-MEL-28 melanoma
  TGI: > 100 µM
SK-MEL-5 melanoma
  TGI: > 100 µM
SK-OV-3 ovarian
  TGI: > 100 µM
SN12C renal
  TGI: > 100 µM
SNB-19 CNS
  TGI: > 100 µM
SNB-75 CNS
  TGI: > 100 µM
T-47D breast
  TGI: > 100 µM
TK-10 renal
  TGI: > 100 µM
U251 CNS
  TGI: > 100 µM
UACC-257 melanoma
  TGI: > 100 µM
UACC-62 melanoma
  TGI: > 100 µM
UO-31 renal
  TGI: > 100 µM

## N=c1ccc2c(c1)[nH]c1c3ccccc3[nH]c3cccc2c31
A498 renal
  TGI: 3.2 µM
ACHN renal
  TGI: 2.74 µM
BT-549 breast
  TGI: 13.1 µM
CAKI-1 renal
  TGI: 3.02 µM
CCRF-CEM leukemia
  TGI: > 100 µM
COLO 205 colon
  TGI: 2.67 µM
DU-145 prostate
  TGI: 2.95 µM
EKVX NSCLC
  TGI: 3.1 µM
HCC-2998 colon
  TGI: 2.44 µM
HCT-116 colon
  TGI: 2.8 µM
HL-60(TB) leukemia
  TGI: > 100 µM
HOP-62 NSCLC
  TGI: 2.58 µM
HOP-92 NSCLC
  TGI: 3.22 µM
HT29 colon
  TGI: 2.47 µM
IGROV1 ovarian
  TGI: 2.67 µM
K-562 leukemia
  TGI: > 100 µM
KM12 colon
  TGI: 2.6 µM
M14 melanoma
  TGI: 3.65 µM
MDA-MB-231 breast
  TGI: 2.69 µM
MDA-MB-435
  TGI: 3.2 µM
MDA-N
  TGI: 2.76 µM
NCI-H23 lung
  TGI: 2.94 µM
NCI-H522 lung
  TGI: 3.06 µM
OVCAR-4 ovarian
  TGI: 3.23 µM
OVCAR-5 ovarian
  TGI: 3.16 µM
PC-3 prostate
  TGI: 2.97 µM
RXF 393 renal
  TGI: 3.09 µM
SF-295 CNS
  TGI: 2.61 µM
SK-MEL-2 melanoma
  TGI: 3.14 µM
SK-MEL-5 melanoma
  TGI: 3.17 µM
SK-OV-3 ovarian
  TGI: 3 µM
SNB-19 CNS
  TGI: 3 µM
SW-620 colon
  TGI: 2.02 µM
TK-10 renal
  TGI: 3.62 µM
UACC-257 melanoma
  TGI: 3.52 µM
UO-31 renal
  TGI: 3.14 µM

## O=c1ccn2n1CCCCC2
786-0 renal
  TGI: > 100 µM
A498 renal
  TGI: > 100 µM
A549 NSCLC
  TGI: > 100 µM
ACHN renal
  TGI: > 100 µM
CAKI-1 renal
  TGI: > 100 µM
CCRF-CEM leukemia
  TGI: > 100 µM
COLO 205 colon
  TGI: > 100 µM
DU-145 prostate
  TGI: > 100 µM
EKVX NSCLC
  TGI: > 100 µM
HCC-2998 colon
  TGI: > 100 µM
HCT-116 colon
  TGI: > 100 µM
HCT-15 colon
  TGI: > 100 µM
HL-60(TB) leukemia
  TGI: > 100 µM
HOP-62 NSCLC
  TGI: > 100 µM
HOP-92 NSCLC
  TGI: > 100 µM
HS 578T breast
  TGI: > 100 µM
HT29 colon
  TGI: > 100 µM
IGROV1 ovarian
  TGI: > 100 µM
K-562 leukemia
  TGI: > 100 µM
KM12 colon
  TGI: > 100 µM
LOX IMVI melanoma
  TGI: > 100 µM
M14 melanoma
  TGI: > 100 µM
MALME-3M melanoma
  TGI: > 100 µM
MDA-MB-231 breast
  TGI: > 100 µM
MDA-MB-435
  TGI: > 100 µM
MDA-N
  TGI: > 100 µM
MOLT-4 leukemia
  TGI: > 100 µM
NCI-H226 lung
  TGI: > 100 µM
NCI-H23 lung
  TGI: > 100 µM
NCI-H460 lung
  TGI: > 100 µM
NCI-H522 lung
  TGI: > 100 µM
NCI/ADR-RES ovarian
  TGI: > 100 µM
OVCAR-3 ovarian
  TGI: > 100 µM
OVCAR-4 ovarian
  TGI: > 100 µM
OVCAR-5 ovarian
  TGI: > 100 µM
OVCAR-8 ovarian
  TGI: > 100 µM
PC-3 prostate
  TGI: > 100 µM
RPMI-8226 leukemia
  TGI: > 100 µM
RXF 393 renal
  TGI: > 100 µM
SF-268 CNS
  TGI: > 100 µM
SF-295 CNS
  TGI: > 100 µM
SF-539 CNS
  TGI: > 100 µM
SK-MEL-2 melanoma
  TGI: > 100 µM
SK-MEL-28 melanoma
  TGI: > 100 µM
SK-MEL-5 melanoma
  TGI: > 100 µM
SK-OV-3 ovarian
  TGI: > 100 µM
SN12C renal
  TGI: > 100 µM
SNB-19 CNS
  TGI: > 100 µM
SR leukemia
  TGI: > 100 µM
SW-620 colon
  TGI: > 100 µM
T-47D breast
  TGI: > 100 µM
TK-10 renal
  TGI: > 100 µM
U251 CNS
  TGI: > 100 µM
UACC-257 melanoma
  TGI: > 100 µM
UACC-62 melanoma
  TGI: > 100 µM
UO-31 renal
  TGI: > 100 µM

## CC(=O)Oc1ccccc1C(=O)O
786-0 renal
  TGI: > 100 µM
A549 NSCLC
  TGI: > 100 µM
ACHN renal
  TGI: > 100 µM
BT-549 breast
  TGI: > 100 µM
CAKI-1 renal
  TGI: > 100 µM
CCRF-CEM leukemia
  TGI: > 100 µM
COLO 205 colon
  TGI: > 100 µM
DU-145 prostate
  TGI: > 100 µM
EKVX NSCLC
  TGI: > 100 µM
HCT-116 colon
  TGI: > 100 µM
HCT-15 colon
  TGI: > 100 µM
HL-60(TB) leukemia
  TGI: > 100 µM
HOP-62 NSCLC
  TGI: > 100 µM
HT29 colon
  TGI: > 100 µM
K-562 leukemia
  TGI: > 100 µM
KM12 colon
  TGI: > 100 µM
LOX IMVI melanoma
  TGI: > 100 µM
M14 melanoma
  TGI: > 100 µM
MALME-3M melanoma
  TGI: > 100 µM
MCF7 breast
  TGI: > 100 µM
MDA-MB-435
  TGI: > 100 µM
MDA-N
  TGI: > 100 µM
MOLT-4 leukemia
  TGI: > 100 µM
NCI-H226 lung
  TGI: > 100 µM
NCI-H23 lung
  TGI: > 100 µM
NCI-H522 lung
  TGI: > 100 µM
NCI/ADR-RES ovarian
  TGI: > 100 µM
OVCAR-3 ovarian
  TGI: > 100 µM
OVCAR-4 ovarian
  TGI: > 100 µM
OVCAR-5 ovarian
  TGI: > 100 µM
OVCAR-8 ovarian
  TGI: > 100 µM
PC-3 prostate
  TGI: > 100 µM
RPMI-8226 leukemia
  TGI: > 100 µM
RXF 393 renal
  TGI: > 100 µM
SF-268 CNS
  TGI: > 100 µM
SF-295 CNS
  TGI: > 100 µM
SF-539 CNS
  TGI: > 100 µM
SK-MEL-2 melanoma
  TGI: > 100 µM
SK-MEL-28 melanoma
  TGI: > 100 µM
SK-MEL-5 melanoma
  TGI: > 100 µM
SK-OV-3 ovarian
  TGI: > 100 µM
SN12C renal
  TGI: > 100 µM
SNB-19 CNS
  TGI: > 100 µM
SNB-75 CNS
  TGI: > 100 µM
SR leukemia
  TGI: > 100 µM
SW-620 colon
  TGI: > 100 µM
T-47D breast
  TGI: > 100 µM
TK-10 renal
  TGI: > 100 µM
U251 CNS
  TGI: > 100 µM
UACC-257 melanoma
  TGI: > 100 µM
UACC-62 melanoma
  TGI: > 100 µM
UO-31 renal
  TGI: > 100 µM
